Measurements taken from publication PMC2680146 (Chemical biology & drug design, 2008).
Entries after “also recorded” stand apart in the source; their conditions may differ.

Assays:
Photolysis = type: physicochemical; settings: 300-400 nm light (λmax 350 nm)
yPFTase [1] = assay: yPFTase substrate studies, continuous fluorescence assay; type: biochemical, Saccharomyces cerevisiae
yPFTase [2] = assay: yPFTase-catalyzed prenylation, product analysis by HPLC; type: biochemical, Saccharomyces cerevisiae; settings: FPP source pure FPP or photolysis product of 5 or 9
PFTase = settings: literature comparison value; ref [46]; cited from earlier work
[3] = λirrad 350 nm; ref [16]; cited from earlier work
rPFTase = rPFTase (Rattus norvegicus, UniProt Q02293+Q04631); assay: X-ray crystallography of rPFTase:FPP:15 complex; type: binding; settings: FPP bound in presence of 15 vs PDB 1KZO
Chain of rPFTase (Q02293 whole entry, one chain of several): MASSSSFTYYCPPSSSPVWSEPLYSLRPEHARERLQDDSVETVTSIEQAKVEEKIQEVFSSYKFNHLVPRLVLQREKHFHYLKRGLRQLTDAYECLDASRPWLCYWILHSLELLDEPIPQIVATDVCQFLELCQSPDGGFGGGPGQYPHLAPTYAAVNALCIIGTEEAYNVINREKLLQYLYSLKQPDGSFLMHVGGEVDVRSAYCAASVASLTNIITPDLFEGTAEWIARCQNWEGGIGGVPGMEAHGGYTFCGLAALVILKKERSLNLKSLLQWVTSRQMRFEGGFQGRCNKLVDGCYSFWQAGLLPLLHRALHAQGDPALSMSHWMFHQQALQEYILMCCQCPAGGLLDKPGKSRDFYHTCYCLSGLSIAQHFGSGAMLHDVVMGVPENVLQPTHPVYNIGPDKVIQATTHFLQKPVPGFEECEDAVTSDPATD

Row | Compound | Qu1 (single-photon uncaging efficiency) (Photolysis; 25 mM NH4HCO3) | photolysis product (Photolysis; RP-HPLC) | substrate behaviour (yPFTase [1]; prior to uncaging) | prenylated product formed (yPFTase [2]) | also measured
1 | COc1cc(C(C)OP(=O)(O)OP(=O)(O)OC/C=C(\C)CC/C=C(\C)CCC=C(C)C)c([N+](=O)[O-])cc1OC (stereo not drawn) [Compound 9, β-1-(4,5-dimethoxy-nitrophenyl)ethyl farnesyl diphosphate] | 0.08 | release of farnesyl diphosphate; also recorded: efficiently release FPP upon irradiation | poorer substrate prior to uncaging; also recorded: poor substrates for PFTase | same prenylated product | uncaging rate constant k (Photolysis; 25 mM NH4HCO3, RP-HPLC, first-order kinetics): 0.12 min⁻¹; rate of enzymatic prenylation relative to FPP (yPFTase [1]; prior to uncaging): 7.6%
2 | CVIM | – | – | – | – | IC50 (PFTase): 165 nM
3 | COc1cc(C(C)OP(=O)(O)OP(=O)(O)OP(=O)(O)OC[C@H]2O[C@@H](n3cnc4c(N)ncnc43)[C@H](O)[C@@H]2O)c([N+](=O)[O-])cc1OC (stereo partly shown) [DMNPE-ATP] | – | – | – | – | Qu1 (quantum efficiency) [3]: 0.07 mol·ein^-1; Uncaging Rate [3]: 18.0 s⁻¹
4 | CC(C)=CCC/C(C)=C/CC/C(C)=C/COP(=O)(O)OP(=O)(O)OCc1ccccc1[N+](=O)[O-] [Compound 5, β-(2-nitrobenzyl)farnesyl diphosphate] | 0.70 | release of farnesyl diphosphate; also recorded: efficiently release FPP upon irradiation | better substrate than compound 9; also recorded: poor substrates for PFTase | same prenylated product | interference of photolysis byproducts with catalysis (yPFTase [1]; after irradiation): do not interfere with catalysis in any way
5 | CC(C)=CCC/C(C)=C/CC/C(C)=C/CO[P@@](=O)(O)OP(=O)(O)O (stereo in doubt) [FPP, farnesyl diphosphate, reference compound] | – | – | – | same prenylated product | rms deviation over all FPP atoms (rPFTase): 0.546 Å
